Earlier results in patent publication US10137245B2 (priority 2010, dated 2018).

How the values were obtained:
[1] = tested on: healthy human volunteers; conditions: intrathecal morphine group; extremely low plasma levels; Bailey and colleagues
[2] = tested on: human surgical patients; conditions: propofol concentration, Shafer et al 1988

In the case of CN1CC[C@]23c4c5ccc(O)c4O[C@H]2[C@@H](O)C=C[C@H]3[C@H]1C5 [morphine], the “Effect on HRV” value [1] is given as “substantial reduction”.
For CC(C)c1cccc(C(C)C)c1O [propofol, 2,6-diisopropylphenol], the EC50 for awakening [2] is given as 1.07 ± 0.13 µg/mL and the EC50 for orientation [2] is given as 0.95 ± 0.19 µg/mL.
